Measured values taken from ChEMBL document CHEMBL1821577, “Discovery of GSK1997132B a novel centrally penetrant benzimidazole PPARγ partial agonist” (Bioorg Med Chem Lett, 2011).
≈ marks a conversion by molar mass, not a printed value. Each block holds one compound with its values, some of them ahead of it.

Tests used:
[1] = target: T1, Peroxisome proliferator-activated receptor gamma (Homo sapiens) (UniProt P37231); assay: Activity at human PPARgamma by luciferase reporter gene assay; parameters: concentration or dose not given beside the values
T1 sequence (whole entry): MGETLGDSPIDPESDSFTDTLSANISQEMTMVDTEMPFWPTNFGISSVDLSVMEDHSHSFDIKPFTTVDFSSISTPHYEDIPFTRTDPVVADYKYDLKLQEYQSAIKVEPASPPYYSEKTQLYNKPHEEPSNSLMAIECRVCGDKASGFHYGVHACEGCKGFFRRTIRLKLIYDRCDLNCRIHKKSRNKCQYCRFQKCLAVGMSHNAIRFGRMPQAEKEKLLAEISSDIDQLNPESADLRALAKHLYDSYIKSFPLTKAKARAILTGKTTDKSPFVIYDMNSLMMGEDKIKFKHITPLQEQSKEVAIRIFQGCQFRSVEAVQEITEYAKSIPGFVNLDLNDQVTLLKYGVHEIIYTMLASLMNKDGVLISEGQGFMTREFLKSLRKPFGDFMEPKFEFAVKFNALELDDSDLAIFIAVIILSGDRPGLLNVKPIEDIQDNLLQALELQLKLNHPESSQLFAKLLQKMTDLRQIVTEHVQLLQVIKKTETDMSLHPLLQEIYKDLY

[2] = target: T2, Peroxisome proliferator-activated receptor gamma (Homo sapiens, UniProt P37231); assay: Partial agonist activity at human PPARgamma by luciferase reporter gene assay; type: functional
T2 sequence (P37231 whole entry): T1 sequence (whole entry)

[3] = test system: Liver microsomes; assay: Intrinsic clearance in human liver microsome; type: ADME
[4] = test system: Brain; assay: Drug uptake in rat brain at steady state at 2 mg/kg/h, iv; type: ADME, organism-based; parameters: route intravenous; details: in vivo, read-out: Drug uptake
[5] = Ratio of drug uptake in brain to blood at steady state in rat at 2 mg/kg/h, iv; type: ADME, organism-based; parameters: route intravenous
[6] = test system: Liver microsomes; assay: Intrinsic clearance in rat liver microsome; type: ADME
[7] = test system: Rattus norvegicus; assay: Blood clearance at steady state in rat at 2 mg/kg/h, iv; type: ADME, organism-based; parameters: route intravenous; details: in vivo
[8] = test system: Liver; assay: Intrinsic clearance in rat liver S9 fraction; type: ADME, subcellular
[9] = target: Cytochrome P450 2C9 (Homo sapiens, UniProt P11712); assay: Inhibition of CYP2C9; type: ADME
Cytochrome P450 2C9, sequence (P11712 whole entry): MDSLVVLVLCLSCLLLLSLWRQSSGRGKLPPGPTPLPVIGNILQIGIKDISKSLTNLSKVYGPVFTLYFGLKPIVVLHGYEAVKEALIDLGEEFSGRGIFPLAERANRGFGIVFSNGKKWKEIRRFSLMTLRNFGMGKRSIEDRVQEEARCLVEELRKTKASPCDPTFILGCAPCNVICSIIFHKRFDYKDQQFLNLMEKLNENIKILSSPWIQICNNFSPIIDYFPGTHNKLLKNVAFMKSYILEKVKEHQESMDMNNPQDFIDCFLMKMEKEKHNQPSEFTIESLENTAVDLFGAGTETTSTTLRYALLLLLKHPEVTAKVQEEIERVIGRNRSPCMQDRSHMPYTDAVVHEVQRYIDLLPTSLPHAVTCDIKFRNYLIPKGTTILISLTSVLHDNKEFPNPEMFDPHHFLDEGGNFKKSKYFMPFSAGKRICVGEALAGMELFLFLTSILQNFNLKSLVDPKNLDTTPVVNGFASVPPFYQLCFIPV

[10] = target: T3, Cytochrome P450 3A4 (Homo sapiens, UniProt P08684); assay: Inhibition of CYP3A4 using DEF substrate; type: ADME
T3 sequence (P08684 whole entry): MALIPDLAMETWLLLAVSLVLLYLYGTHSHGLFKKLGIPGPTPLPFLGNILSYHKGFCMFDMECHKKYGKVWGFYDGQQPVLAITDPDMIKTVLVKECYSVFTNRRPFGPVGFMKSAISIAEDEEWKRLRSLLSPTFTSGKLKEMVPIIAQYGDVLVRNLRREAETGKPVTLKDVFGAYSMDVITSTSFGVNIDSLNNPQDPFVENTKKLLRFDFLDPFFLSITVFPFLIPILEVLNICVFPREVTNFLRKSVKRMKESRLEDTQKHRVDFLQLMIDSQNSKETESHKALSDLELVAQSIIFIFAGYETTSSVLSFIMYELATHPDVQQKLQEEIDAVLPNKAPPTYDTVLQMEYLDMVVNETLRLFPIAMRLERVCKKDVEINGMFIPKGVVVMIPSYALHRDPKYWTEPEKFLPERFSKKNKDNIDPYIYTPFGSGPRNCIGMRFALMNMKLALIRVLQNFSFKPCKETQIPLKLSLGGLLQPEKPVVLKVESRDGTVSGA

[11] = Solubility of the compound in fasted state simulated intestinal fluid after 0.5 hrs; type: physicochemical
[12] = target: T3, Cytochrome P450 3A4; assay: Inhibition of CYP3A4 using 7-benzyloxyquinoline as substrate; type: ADME
[13] = Fraction unbound in rat blood; type: ADME, tissue-based
[14] = test system: P-gp (human MDR1); assay: Efflux ratio of permeability in dog MDCK2 expressing human MDR1 cells by PGP assay; type: ADME, cell-based, Canis lupus familiaris, MDCK-II; details: MDCK-MDR1
[15] = target: T4, Cytochrome P450 1A2 (Homo sapiens, UniProt P05177); assay: Inhibition of CYP1A2; type: ADME
T4 sequence (P05177 whole entry): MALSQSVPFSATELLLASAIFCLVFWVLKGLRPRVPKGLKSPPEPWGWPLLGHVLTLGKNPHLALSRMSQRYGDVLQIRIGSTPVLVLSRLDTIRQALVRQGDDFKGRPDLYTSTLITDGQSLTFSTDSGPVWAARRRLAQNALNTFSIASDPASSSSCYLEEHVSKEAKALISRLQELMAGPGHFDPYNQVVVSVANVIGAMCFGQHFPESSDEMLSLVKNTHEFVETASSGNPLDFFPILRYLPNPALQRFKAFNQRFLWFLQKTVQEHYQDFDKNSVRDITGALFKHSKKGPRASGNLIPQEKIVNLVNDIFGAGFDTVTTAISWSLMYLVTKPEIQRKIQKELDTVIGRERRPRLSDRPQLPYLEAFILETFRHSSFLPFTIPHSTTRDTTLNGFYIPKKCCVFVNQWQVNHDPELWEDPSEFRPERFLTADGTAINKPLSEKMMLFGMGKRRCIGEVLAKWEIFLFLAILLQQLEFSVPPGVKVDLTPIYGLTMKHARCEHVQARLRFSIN

[16] = Solubility of the compound in fed state simulated intestinal fluid after 0.5 hrs; type: physicochemical
[17] = test system: P-gp (human MDR1); assay: Permeability of the compound from apical to basolateral direction in dog MDCK2 expressing human MDR1 cells by PGP assay; type: ADME, cell-based, Canis lupus familiaris, MDCK-II; details: MDCK-MDR1, read-out: permeability
[18] = test system: Brain; assay: Free drug level rat brain at 1 mg/kg, iv; type: ADME, organism-based; parameters: dose 1 mg/kg, route intravenous; details: in vivo
[19] = Solubility of the compound in simulated gastric fluid after 0.5 hrs; type: physicochemical
[20] = target: Cytochrome P450 2C19 (Homo sapiens, UniProt P33261); assay: Inhibition of CYP2C19; type: ADME
Cytochrome P450 2C19, sequence (P33261 whole entry): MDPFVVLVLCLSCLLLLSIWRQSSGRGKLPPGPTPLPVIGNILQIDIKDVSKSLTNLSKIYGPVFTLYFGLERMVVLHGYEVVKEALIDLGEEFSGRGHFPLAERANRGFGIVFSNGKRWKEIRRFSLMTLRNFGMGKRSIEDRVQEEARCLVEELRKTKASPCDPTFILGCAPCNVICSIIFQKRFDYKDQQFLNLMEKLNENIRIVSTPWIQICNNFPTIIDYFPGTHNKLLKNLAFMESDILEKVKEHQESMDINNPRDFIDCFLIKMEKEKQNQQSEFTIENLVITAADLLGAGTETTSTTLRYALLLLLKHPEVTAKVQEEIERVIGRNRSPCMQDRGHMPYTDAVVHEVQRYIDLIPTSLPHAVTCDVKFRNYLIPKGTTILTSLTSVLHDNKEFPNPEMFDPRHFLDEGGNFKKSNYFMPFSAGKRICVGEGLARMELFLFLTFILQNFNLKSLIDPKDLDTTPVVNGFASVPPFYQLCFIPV

[21] = Fraction unbound in rat brain; type: ADME, tissue-based
[22] = Solubility of the compound in water after 0.5 hrs; type: physicochemical
[23] = target: Cytochrome P450 2D6 (Homo sapiens, UniProt P10635); assay: Inhibition of CYP2D6; type: ADME
Cytochrome P450 2D6, sequence (P10635 whole entry): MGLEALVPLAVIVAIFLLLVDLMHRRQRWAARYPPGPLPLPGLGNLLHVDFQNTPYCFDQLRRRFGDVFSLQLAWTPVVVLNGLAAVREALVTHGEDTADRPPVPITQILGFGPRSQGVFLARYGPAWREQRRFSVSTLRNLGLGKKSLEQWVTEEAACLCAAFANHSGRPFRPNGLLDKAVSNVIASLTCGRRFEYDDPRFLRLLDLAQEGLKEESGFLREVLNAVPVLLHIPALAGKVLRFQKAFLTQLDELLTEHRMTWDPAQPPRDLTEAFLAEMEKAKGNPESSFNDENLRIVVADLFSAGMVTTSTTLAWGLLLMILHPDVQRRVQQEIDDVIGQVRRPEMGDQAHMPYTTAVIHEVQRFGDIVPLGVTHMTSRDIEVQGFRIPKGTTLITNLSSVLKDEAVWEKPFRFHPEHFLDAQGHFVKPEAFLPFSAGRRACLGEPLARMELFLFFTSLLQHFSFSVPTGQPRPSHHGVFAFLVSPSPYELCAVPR

[24] = Ratio of drug uptake in brain to blood in rat at 3 mg/kg, po; type: ADME, organism-based; parameters: dose 3 mg/kg, route oral
[25] = test system: Brain; assay: Drug uptake in rat brain at 3 mg/kg, po; type: ADME, organism-based; parameters: dose 3 mg/kg, route oral; details: in vivo, read-out: Drug uptake
[26] = test system: Rattus norvegicus; assay: Blood clearance in rat at 1 mg/kg, iv; type: ADME, organism-based; parameters: dose 1 mg/kg, route intravenous; details: in vivo
[27] = target: T5, Peroxisome proliferator-activated receptor delta (Homo sapiens, UniProt Q03181); assay: Partial agonist activity at PPARdelta by luciferase reporter gene assay; type: functional
T5 sequence (Q03181 whole entry): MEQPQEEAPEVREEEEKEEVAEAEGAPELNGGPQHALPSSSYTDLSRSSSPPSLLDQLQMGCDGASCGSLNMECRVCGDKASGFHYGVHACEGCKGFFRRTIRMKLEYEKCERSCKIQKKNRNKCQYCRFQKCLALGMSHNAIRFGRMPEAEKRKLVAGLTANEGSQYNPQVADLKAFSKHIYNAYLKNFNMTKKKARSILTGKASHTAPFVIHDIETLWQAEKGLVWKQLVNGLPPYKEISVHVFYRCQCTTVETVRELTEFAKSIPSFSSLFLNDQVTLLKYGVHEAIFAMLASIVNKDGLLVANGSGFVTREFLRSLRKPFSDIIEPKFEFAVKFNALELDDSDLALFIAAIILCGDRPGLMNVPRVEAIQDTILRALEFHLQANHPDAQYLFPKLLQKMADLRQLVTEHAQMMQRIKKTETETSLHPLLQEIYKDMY

[28] = test system: Mus musculus; assay: Blood clearance in mouse at 1 mg/kg, iv; type: ADME, organism-based; parameters: dose 1 mg/kg, route intravenous; details: in vivo
[29] = target: T6, Peroxisome proliferator-activated receptor alpha (Homo sapiens, UniProt Q07869); assay: Partial agonist activity at PPARalpha by luciferase reporter gene assay; type: functional
T6 sequence (Q07869 whole entry): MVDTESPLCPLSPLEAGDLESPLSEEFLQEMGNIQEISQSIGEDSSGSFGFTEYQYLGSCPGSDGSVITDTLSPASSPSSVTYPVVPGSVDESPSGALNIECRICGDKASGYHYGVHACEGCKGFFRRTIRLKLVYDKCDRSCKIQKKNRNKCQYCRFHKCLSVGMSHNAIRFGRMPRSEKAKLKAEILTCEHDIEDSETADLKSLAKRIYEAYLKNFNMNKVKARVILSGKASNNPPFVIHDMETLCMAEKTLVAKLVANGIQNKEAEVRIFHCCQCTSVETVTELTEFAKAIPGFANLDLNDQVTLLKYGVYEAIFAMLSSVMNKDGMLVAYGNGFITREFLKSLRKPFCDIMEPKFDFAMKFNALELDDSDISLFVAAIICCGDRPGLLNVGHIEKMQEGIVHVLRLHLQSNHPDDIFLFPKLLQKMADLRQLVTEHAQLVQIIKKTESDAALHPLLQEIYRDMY

[30] = test system: Liver; assay: Intrinsic clearance in mouse liver microsome; type: ADME; details: microsomes

Compound: CC[C@@H](NC(=O)c1ccc2c(c1)nc(C(F)(F)F)n2Cc1ccc(Cl)c(Cl)c1)c1ccccc1
Activity [1]: 60%
EC50 [2]: 0.251 µM

Compound: CC[C@@H](NC(=O)c1ccc2c(c1)ncn2Cc1ccc(Cl)cn1)c1ccccc1
Activity [1]: 80%
EC50 [2]: 0.0398 µM

Compound: CCc1nc2cc(C(=O)N[C@H](CC)c3ccccc3)ccc2n1Cc1ccc(Cl)c(Cl)c1
Activity [1]: 65%
EC50 [2]: 0.2 µM

Compound: CC[C@@H](NC(=O)c1ccc2c(c1)ncn2Cc1ccc(F)c(Cl)c1)c1ccccc1
Activity [1]: 85%
EC50 [2]: 0.00631 µM

Compound: Cc1nc2cc(C(=O)N[C@H](C)c3ccccc3)ccc2n1Cc1ccc(Cl)c(Cl)c1
CL [3]: 0.5 mL/min/g
Activity [1]: 77%
Kp [24]: 0.29
EC50 [2]: 0.0501 µM
CL [6]: 1.4 mL/min/g
concentration [25]: 12 nM
CL [8]: 8.3 mL/min/g
clearance [26]: 75 mL/min/kg

Compound: CC[C@@H](NC(=O)c1ccc2c(c1)ncn2Cc1ccc(Cl)cc1Cl)c1ccccc1
Activity [1]: 77%
EC50 [2]: 0.000501 µM

Compound: CCC(NC(=O)c1ccc2c(c1)nc(C)n2Cc1ccc(Cl)c(Cl)c1)c1ccccc1 (stereo unspecified)
EC50 [27]: > 10 µM
CL [3]: 0.5 mL/min/g
Activity [1]: 64%
EC50 [2]: 0.0501 µM
CL [6]: 2.5 mL/min/g
clearance [28]: 736 mL/min/kg
EC50 [29]: > 10 µM
CL [30]: 1.75 mL/min/g

Compound: CC[C@@H](NC(=O)c1ccc2c(c1)ncn2Cc1ccc(Cl)cc1)c1ccccc1
Activity [1]: 74%
EC50 [2]: 0.00316 µM

Compound: CC[C@@H](NC(=O)c1ccc2c(c1)nc(C)n2Cc1ccc(S(C)(=O)=O)cc1)c1ccccc1
Activity [1]: 48%
EC50 [2]: 5.01 µM

Compound: CC[C@@H](NC(=O)c1ccc2c(c1)ncn2Cc1ccccn1)c1ccccc1
concentration [4]: 228 nM
Activity [1]: 59%
EC50 [2]: 0.126 µM
Kp [5]: 0.2
clearance [7]: 78 mL/min/kg

More lines, now with the values ahead:

Activity [1]: 50%
EC50 [2]: 0.631 µM
Compound: Cc1nc2cc(C(=O)N[C@@H](C)c3ccccc3)ccc2n1Cc1ccc(Cl)c(Cl)c1

CL [3]: 0.6 mL/min/g
concentration [4]: 655 nM
Activity [1]: 71%
EC50 [2]: 0.00251 µM
Kp [5]: 0.71
CL [6]: 3.3 mL/min/g
clearance [7]: 84 mL/min/kg
CL [8]: 10 mL/min/g
Compound: CC[C@@H](NC(=O)c1ccc2c(c1)ncn2Cc1ccc(Cl)c(Cl)c1)c1ccccc1

Activity [1]: 76%
EC50 [2]: 0.000501 µM
Compound: CC[C@@H](NC(=O)c1ccc2c(c1)ncn2Cc1ncc(Cl)cc1Cl)c1ccccc1

Activity [1]: 74%
EC50 [2]: 0.158 µM
Compound: CC[C@@H](NC(=O)c1ccc2c(c1)nc(C)n2Cc1ccc(F)cc1)c1ccccc1

IC50 [9]: 42 µM
IC50 [10]: 45 µM
solubility at 0.5 h [11]: 80 µg/mL (≈ 197 µM)
IC50 [12]: > 100 µM
CL [3]: 0.5 mL/min/g
fraction unbound [13]: 0.175
efflux ratio [14]: 1.6
concentration [4]: 446 nM
IC50 [15]: 14 µM
Activity [1]: 68%
solubility at 0.5 h [16]: 220 µg/mL (≈ 541 µM)
EC50 [2]: 0.01 µM
Kp [5]: 0.22
Papp A→B [17]: 122 ×10⁻⁶ cm/s
CL [6]: 1.2 mL/min/g
Drug uptake [18]: 51 nM
solubility at 0.5 h [19]: > 1000 µg/mL
clearance [7]: 30 mL/min/kg
IC50 [20]: 87 µM
fraction unbound [21]: 0.115
solubility at 0.5 h [22]: 330 µg/mL (≈ 812 µM)
CL [8]: 1.6 mL/min/g
IC50 [23]: 65 µM
Compound: CC[C@@H](NC(=O)c1ccc2c(c1)ncn2Cc1ncc(F)cc1F)c1ccccc1

Activity [1]: 42%
EC50 [2]: 0.398 µM
Compound: CC[C@@H](NC(=O)c1ccc2c(c1)nc(C(C)C)n2Cc1ccc(Cl)c(Cl)c1)c1ccccc1

Activity [1]: 83%
EC50 [2]: 0.398 µM
Compound: Cc1nc2cc(C(=O)NCc3ccccc3)ccc2n1Cc1ccc(Cl)c(Cl)c1
